Measurements taken from US20130217664A1, “NOVEL COMPOUNDS USEFUL FOR THE TREATMENT OF DEGENERATIVE AND INFLAMMATORY DISEASES” (priority 2012, published 2013).

How the values were obtained:
human JAK3 = biological target: T1, human JAK3 (Homo sapiens, UniProt P52333); assay: JAK3 inhibition assay; type: biochemical; conditions: recombinant human JAK3 catalytic domain; polyGT substrate
T1 construct: catalytic domain (amino acids 781-1124; catalog number PV3855); purchased Invitrogen PV3855
Outline: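 Radiometric kinase assay: 0.5 ng JAK3 with 2.5 μg polyGT in Tris pH 7.5/MgCl2 buffer, 1 μM ATP plus 0.25 μCi 33P-γ-ATP, 1% DMSO, 45 min at 30 °C, stopped with phosphoric acid.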

human JAK2 = biological target: T2, human JAK2 (Homo sapiens, UniProt O60674); assay: JAK2 inhibition assay (polyGT substrate / Ulight-JAK1 peptide); type: biochemical; conditions: recombinant human JAK2 catalytic domain; polyGT or Ulight-JAK1 peptide assay
T2 construct: catalytic domain (amino acids 808-1132; catalog number PV4210); GST; purchased Invitrogen PV4210
Outline: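 Two JAK2 formats: a ^33P-ATP polyGT assay (1 μM cold ATP, 90 min, 30° C., cpm read-out) and a Ulight-JAK1 peptide assay read by Europium-anti-phosphotyrosine fluorescence after 60 min at room temperature.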

human JAK1 = biological target: T3, human JAK1 (Homo sapiens, UniProt P23458); assay: JAK1 inhibition assay (polyGT substrate / Ulight-JAK1 peptide); type: biochemical; conditions: recombinant human JAK1 catalytic domain; polyGT or Ulight-JAK1 peptide assay
T3 construct: catalytic domain, amino acids 866-1154; catalog number PV4774; purchased Invitrogen PV4774
Outline: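 Signal scaled between vehicle and 10 μM staurosporine. Radiometric polyGT reactions ran 45 min at 30 °C, counted after phosphoric-acid stop. Ulight peptide reactions ran 60 min at room temperature, fluorescence read after adding Eu-PT66 detection mix with EDTA.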

human TYK2 = biological target: T4, human TYK2 (Homo sapiens, UniProt P29597); assay: TYK2 inhibition assay; type: biochemical; conditions: recombinant human TYK2 catalytic domain, polyGT substrate
T4 construct: catalytic domain (amino acids 871-1187; catalog number 08-147); purchased Carna Biosciences 08-147
T4 sequence (P29597 871-1187): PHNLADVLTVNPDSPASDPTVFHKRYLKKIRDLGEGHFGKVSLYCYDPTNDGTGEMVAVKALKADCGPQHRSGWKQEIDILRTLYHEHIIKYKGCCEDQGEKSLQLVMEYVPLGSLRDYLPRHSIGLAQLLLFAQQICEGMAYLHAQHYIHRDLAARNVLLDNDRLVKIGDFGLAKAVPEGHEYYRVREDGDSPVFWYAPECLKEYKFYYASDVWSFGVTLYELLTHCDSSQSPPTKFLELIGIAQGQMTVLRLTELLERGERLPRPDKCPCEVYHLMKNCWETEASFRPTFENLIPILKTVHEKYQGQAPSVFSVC
Outline: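 Radiometric kinase reaction run 90 min at 30 °C, stopped with phosphoric acid, washed and scintillation-counted.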

BA/F3 cell line = assay: BA/F3 viability assay; conditions: Mus musculus, BaF3, 48 h, read-out: BA/F3 IC50
CTLL-2 cell line = assay: CTLL2 viability assay; type: cell-based; conditions: Mus musculus, IL-2 dependent CTLL2 viability, 24 h, ATP-lite
From the text: The protocol describes the methods to analyse the activity of compounds on their ability to sustain the IL2-dependent viability of CTLL2.
Final DMSO concentration was 0.1%.

T1 sequence (P52333 781-1124): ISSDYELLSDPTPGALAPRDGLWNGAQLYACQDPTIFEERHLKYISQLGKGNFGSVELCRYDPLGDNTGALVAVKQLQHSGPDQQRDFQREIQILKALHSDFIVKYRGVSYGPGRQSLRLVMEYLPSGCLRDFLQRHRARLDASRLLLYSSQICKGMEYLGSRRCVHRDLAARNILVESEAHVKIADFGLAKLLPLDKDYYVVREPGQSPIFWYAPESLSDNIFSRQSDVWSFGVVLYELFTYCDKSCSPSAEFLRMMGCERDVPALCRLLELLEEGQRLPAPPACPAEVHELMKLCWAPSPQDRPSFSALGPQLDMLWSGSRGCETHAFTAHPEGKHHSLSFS
T3 sequence (P23458 866-1154): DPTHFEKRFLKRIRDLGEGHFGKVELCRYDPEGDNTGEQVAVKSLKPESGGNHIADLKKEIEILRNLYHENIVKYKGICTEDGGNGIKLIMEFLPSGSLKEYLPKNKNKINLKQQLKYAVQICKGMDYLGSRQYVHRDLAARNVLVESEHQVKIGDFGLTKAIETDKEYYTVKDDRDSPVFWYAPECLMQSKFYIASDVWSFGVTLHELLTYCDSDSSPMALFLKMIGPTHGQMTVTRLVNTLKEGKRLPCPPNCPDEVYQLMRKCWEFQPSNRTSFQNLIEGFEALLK
T2 sequence (O60674 808-1132): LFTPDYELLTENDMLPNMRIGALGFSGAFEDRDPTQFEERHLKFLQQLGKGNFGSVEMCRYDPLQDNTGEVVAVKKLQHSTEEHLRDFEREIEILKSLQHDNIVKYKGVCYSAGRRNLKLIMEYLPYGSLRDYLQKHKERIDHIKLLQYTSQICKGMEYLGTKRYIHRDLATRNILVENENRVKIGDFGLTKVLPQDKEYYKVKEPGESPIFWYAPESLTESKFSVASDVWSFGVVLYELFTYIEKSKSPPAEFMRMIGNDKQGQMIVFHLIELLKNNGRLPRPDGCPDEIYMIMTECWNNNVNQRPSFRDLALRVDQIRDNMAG

Compound | IC50 (human JAK3) | IC50 (human JAK2) | IC50 (human JAK1) | IC50 (human TYK2) | IC50 (BA/F3 cell line) | IC50 (CTLL-2 cell line)
CCc1cc(C2(C#N)CC2)ccc1N(C)c1cc2c(cn1)ncn2C [Compound 385, 1-{3-Ethyl-4-[methyl-(1-methyl-1H-imidazo[4,5-c]pyridin-6-yl)-amino]-phenyl}-cyclopropanecarbonitrile] | 0.01 to 100 nM | 0.01 to 100 nM | 0.01 to 100 nM | 0.01 to 100 nM | 1000 to 5000 nM | > 1000 nM
CCc1cc(C(CC#N)NS(C)(=O)=O)ccc1N(C)c1cc2c(cn1)ncn2C (stereo not drawn) [Compound 387, N-(2-Cyano-1-{3-ethyl-4-[methyl-(1-methyl-1H-imidazo[4,5-c]pyridin-6-yl)-amino]-phenyl}-ethyl)-methanesulfonamide] | 101 to 500 nM | 101 to 500 nM | 0.01 to 100 nM | 101 to 500 nM | > 5000 nM | > 1000 nM
CCc1cc(CN(CC#N)S(C)(=O)=O)ccc1N(C)c1cc2c(cn1)ncn2C [Compound 388, N-Cyanomethyl-N-{3-ethyl-4-[methyl-(1-methyl-1H-imidazo[4,5-c]pyridin-6-yl)-amino]-benzyl}-methanesulfonamide] | 0.01 to 100 nM | 0.01 to 100 nM | 0.01 to 100 nM | 0.01 to 100 nM | 1000 to 5000 nM | > 1000 nM
CCc1cc(C2(CC#N)COC2)ccc1N(C)c1cc2c(cn1)ncn2C [Compound 389, (3-{3-Ethyl-4-[methyl-(1-methyl-1H-imidazo[4,5-c]pyridin-6-yl)-amino]-phenyl}-oxetan-3-yl)-acetonitrile] | 0.01 to 100 nM | 0.01 to 100 nM | 0.01 to 100 nM | 0.01 to 100 nM | > 5000 nM | > 1000 nM
CCc1cc(C2(CCNS(C)(=O)=O)COC2)ccc1N(C)c1cc2c(cn1)ncn2C [Compound 392, N-[2-(3-{3-Ethyl-4-[methyl-(1-methyl-1H-imidazo[4,5-c]pyridin-6-yl)-amino]-phenyl}-oxetan-3-yl)-ethyl]-methanesulfonamide] | 101 to 500 nM | 0.01 to 100 nM | 0.01 to 100 nM | 0.01 to 100 nM | > 5000 nM | > 1000 nM
CCc1cc(C(C#N)N2CCC(F)(F)CC2)ccc1N(C)c1cc2c(cn1)ncn2C (stereo not drawn) [Compound 395, (4,4-Difluoro-piperidin-1-yl)-{3-ethyl-4-[methyl-(1-methyl-1H-imidazo[4,5-c]pyridin-6-yl)-amino]-phenyl}-acetonitrile] | 101 to 500 nM | 0.01 to 100 nM | 0.01 to 100 nM | 0.01 to 100 nM | > 5000 nM | > 1000 nM

Second part, led by results:

IC50 (human JAK3) | IC50 (human JAK2) | IC50 (human JAK1) | IC50 (human TYK2) | IC50 (BA/F3 cell line) | Compound | IC50 (CTLL-2 cell line)
0.01 to 100 nM | 0.01 to 100 nM | 0.01 to 100 nM | 0.01 to 100 nM | > 5000 nM | CCc1cc(C(C#N)N2CCN(S(C)(=O)=O)CC2)ccc1N(C)c1cc2c(cn1)ncn2C (stereo not drawn) [Compound 390, {3-Ethyl-4-[methyl-(1-methyl-1H-imidazo[4,5-c]pyridin-6-yl)-amino]-phenyl}-(4-methanesulfonyl-piperazin-1-yl)-acetonitrile] | > 1000 nM
101 to 500 nM | 0.01 to 100 nM | 0.01 to 100 nM | 0.01 to 100 nM | 1000 to 5000 nM | CCc1cc(C(C#N)N2CC(C#N)C2)ccc1N(C)c1cc2c(cn1)ncn2C (stereo not drawn) [Compound 391, 1-(Cyano-{3-ethyl-4-[methyl-(1-methyl-1H-imidazo[4,5-c]pyridin-6-yl)-amino]-phenyl}-methyl)-azetidine-3-carbonitrile] | > 1000 nM
0.01 to 100 nM | 0.01 to 100 nM | 0.01 to 100 nM | 0.01 to 100 nM | > 5000 nM | CCc1cc(C(C#N)N2CCOCC2)ccc1N(C)c1cc2c(cn1)ncn2C (stereo not drawn) [Compound 393, {3-Ethyl-4-[methyl-(1-methyl-1H-imidazo[4,5-c]pyridin-6-yl)-amino]-phenyl}-morpholin-4-yl-acetonitrile] | > 1000 nM
101 to 500 nM | 0.01 to 100 nM | 0.01 to 100 nM | 0.01 to 100 nM | 1000 to 5000 nM | CCc1cc(C(C#N)N2CCC2)ccc1N(C)c1cc2c(cn1)ncn2C (stereo not drawn) [Compound 394] | > 1000 nM
